In the kinase profiling compilation of Christmann-Franck et al. (2016):

Assays:
Assay in all cases: radiometric filter-binding kinase assay
MAPK14 (human) = MAPK14 (human) (UniProt Q16539)
LCK (mouse) = details: accession and sequence are those of the human protein
FGFR1 (human) = FGFR1 (human) (UniProt P11362)
MAPKAPK5 (human) = MAPKAPK5 (human) (UniProt Q8IW41)
ROCK2 (rat) = details: accession and sequence are those of the human protein
FLT1 (human) = FLT1 (human) (UniProt P17948)
MINK1 (human) = MINK1 (human) (UniProt Q8N4C8)
SRC (human) = SRC (human) (UniProt P12931)
GSK3B (human) = GSK3B (human) (UniProt P49841)
Chain of GSK3B (human) (P49841 whole entry, looked up): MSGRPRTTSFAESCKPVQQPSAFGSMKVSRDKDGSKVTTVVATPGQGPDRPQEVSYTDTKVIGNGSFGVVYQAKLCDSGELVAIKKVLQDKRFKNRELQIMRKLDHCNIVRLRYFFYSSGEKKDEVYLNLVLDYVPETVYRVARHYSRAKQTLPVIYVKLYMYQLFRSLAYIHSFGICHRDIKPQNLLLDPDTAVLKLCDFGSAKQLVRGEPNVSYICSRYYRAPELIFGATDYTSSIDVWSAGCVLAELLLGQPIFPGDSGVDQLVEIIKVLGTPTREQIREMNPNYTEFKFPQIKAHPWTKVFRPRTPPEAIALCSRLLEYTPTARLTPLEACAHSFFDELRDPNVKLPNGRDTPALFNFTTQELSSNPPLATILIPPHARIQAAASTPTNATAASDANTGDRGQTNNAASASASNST

INSR (human) = INSR (human) (UniProt P06213)
CSK (human) = CSK (human) (UniProt P41240)
Chain of CSK (human) (P41240 whole entry, looked up): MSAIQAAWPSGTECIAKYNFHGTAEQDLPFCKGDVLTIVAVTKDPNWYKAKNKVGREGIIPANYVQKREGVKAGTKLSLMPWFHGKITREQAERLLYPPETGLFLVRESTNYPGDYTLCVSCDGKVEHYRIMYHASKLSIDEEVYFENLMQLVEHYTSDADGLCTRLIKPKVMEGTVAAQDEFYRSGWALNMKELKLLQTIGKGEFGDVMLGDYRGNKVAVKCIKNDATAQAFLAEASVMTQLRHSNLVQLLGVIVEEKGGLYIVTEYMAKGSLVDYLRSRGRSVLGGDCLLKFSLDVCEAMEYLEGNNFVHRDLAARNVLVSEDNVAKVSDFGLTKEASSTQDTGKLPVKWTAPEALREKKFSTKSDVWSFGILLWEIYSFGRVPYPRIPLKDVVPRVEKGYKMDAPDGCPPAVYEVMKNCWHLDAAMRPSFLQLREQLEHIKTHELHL

CAMKK2 (human) = CAMKK2 (human) (UniProt Q96RR4)
Chain of CAMKK2 (human) (Q96RR4 whole entry, looked up): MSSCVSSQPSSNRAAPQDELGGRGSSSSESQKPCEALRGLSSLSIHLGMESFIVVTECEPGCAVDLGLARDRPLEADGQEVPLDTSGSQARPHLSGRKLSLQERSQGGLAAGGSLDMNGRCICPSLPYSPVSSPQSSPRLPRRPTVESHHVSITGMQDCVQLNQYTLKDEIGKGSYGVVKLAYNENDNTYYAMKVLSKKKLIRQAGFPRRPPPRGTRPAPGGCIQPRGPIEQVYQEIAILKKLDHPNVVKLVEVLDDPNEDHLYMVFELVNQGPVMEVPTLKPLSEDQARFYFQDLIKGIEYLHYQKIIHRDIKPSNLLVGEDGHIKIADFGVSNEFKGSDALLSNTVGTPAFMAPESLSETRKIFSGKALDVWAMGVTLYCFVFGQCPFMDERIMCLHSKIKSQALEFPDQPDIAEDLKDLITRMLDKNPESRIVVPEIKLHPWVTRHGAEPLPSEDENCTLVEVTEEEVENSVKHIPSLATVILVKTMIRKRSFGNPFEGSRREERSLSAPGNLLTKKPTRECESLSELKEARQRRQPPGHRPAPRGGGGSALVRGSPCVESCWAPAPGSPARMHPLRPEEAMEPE

NTRK1 (human) = NTRK1 (human) (UniProt P04629)
EPHA2 (human) = EPHA2 (human) (UniProt P29317)
MAPK15 (human) = MAPK15 (human) (UniProt Q8TD08)
IRAK4 (human) = IRAK4 (human) (UniProt Q9NWZ3)
Chain of IRAK4 (human) (Q9NWZ3 whole entry, looked up): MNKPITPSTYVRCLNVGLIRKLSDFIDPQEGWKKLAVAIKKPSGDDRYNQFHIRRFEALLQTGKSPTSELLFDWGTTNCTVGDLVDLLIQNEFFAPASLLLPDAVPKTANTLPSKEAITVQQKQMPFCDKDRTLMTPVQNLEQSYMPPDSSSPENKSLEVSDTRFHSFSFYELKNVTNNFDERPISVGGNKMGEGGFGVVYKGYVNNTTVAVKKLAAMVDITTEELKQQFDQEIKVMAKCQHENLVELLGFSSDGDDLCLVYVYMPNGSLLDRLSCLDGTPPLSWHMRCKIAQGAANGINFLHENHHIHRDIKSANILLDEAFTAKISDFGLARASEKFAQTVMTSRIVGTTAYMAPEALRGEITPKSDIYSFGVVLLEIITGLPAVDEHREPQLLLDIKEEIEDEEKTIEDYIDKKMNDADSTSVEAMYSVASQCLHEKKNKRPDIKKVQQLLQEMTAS

MAPK11 (human) = MAPK11 (human) (UniProt Q15759)
RIPK2 (human) = RIPK2 (human) (UniProt O43353)
DYRK3 (human) = DYRK3 (human) (UniProt O43781)
HIPK3 (human) = HIPK3 (human) (UniProt Q9H422)
CSNK1D (human) = CSNK1D (human) (UniProt P48730)
MARK1 (human) = MARK1 (human) (UniProt Q9P0L2)
RPS6KA3 KD1 KD2 (human) = RPS6KA3 KD1 KD2 (human) (UniProt P51812)
Chain of RPS6KA3 KD1 KD2 (human) (P51812 whole entry, looked up): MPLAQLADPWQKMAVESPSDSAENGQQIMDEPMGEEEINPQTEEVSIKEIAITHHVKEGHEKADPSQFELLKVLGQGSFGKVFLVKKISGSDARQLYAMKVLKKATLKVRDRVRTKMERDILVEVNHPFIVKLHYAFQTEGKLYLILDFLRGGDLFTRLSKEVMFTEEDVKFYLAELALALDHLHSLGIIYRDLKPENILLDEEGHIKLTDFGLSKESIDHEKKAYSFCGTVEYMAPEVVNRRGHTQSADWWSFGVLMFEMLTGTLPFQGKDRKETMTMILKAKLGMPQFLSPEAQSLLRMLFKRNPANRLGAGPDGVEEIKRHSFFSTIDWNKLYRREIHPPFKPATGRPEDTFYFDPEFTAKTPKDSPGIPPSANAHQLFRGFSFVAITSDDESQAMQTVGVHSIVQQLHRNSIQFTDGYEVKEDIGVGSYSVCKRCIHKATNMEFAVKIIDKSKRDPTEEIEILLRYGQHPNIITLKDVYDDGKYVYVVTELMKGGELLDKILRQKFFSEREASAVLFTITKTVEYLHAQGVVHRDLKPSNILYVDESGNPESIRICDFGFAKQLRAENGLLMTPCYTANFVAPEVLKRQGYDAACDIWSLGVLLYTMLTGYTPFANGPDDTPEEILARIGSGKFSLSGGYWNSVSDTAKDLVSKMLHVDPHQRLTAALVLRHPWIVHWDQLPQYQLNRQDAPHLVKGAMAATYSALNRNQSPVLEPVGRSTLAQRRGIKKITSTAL

MAP3K1 (human) = MAP3K1 (human) (UniProt Q13233)
Chain of MAP3K1 (human) (Q13233 whole entry, looked up): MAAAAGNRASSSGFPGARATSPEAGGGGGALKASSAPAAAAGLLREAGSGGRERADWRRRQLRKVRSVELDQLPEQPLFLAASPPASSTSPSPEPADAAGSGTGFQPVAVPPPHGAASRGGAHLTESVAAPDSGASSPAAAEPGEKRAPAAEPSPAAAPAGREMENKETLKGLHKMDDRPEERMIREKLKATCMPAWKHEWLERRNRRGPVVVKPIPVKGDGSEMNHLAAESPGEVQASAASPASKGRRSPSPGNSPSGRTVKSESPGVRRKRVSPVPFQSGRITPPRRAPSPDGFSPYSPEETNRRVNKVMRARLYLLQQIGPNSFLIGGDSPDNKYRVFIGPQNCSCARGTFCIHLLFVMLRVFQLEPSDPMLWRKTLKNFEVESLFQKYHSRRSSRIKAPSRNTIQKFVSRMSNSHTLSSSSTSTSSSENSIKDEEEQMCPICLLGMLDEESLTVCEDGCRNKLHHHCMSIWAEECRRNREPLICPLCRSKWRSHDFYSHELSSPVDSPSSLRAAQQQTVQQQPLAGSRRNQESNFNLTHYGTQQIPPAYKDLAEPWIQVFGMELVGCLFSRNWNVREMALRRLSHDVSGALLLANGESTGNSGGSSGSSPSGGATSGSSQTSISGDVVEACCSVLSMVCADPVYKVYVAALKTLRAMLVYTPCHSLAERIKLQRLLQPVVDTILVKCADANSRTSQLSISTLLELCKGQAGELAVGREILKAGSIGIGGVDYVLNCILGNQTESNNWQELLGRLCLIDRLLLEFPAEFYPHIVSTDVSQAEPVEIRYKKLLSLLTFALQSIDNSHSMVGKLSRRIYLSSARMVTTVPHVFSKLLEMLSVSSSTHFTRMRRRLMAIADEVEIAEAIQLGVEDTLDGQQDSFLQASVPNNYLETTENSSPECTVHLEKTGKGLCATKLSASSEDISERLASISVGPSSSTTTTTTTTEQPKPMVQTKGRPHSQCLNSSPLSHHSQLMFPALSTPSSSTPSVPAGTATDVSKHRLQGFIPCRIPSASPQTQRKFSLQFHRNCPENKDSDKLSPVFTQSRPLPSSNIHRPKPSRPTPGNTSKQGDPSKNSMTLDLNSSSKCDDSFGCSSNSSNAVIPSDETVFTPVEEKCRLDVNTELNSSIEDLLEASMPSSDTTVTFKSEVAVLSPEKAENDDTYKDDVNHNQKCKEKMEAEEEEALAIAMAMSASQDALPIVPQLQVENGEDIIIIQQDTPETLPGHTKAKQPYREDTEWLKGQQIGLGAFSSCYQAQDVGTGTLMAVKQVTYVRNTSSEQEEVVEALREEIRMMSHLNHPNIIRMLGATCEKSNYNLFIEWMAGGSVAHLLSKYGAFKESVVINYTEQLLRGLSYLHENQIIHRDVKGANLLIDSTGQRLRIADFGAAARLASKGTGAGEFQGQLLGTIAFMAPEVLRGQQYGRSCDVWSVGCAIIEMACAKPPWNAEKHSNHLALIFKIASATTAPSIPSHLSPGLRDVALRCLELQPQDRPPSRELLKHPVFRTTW

[1] = tested on: AKT2 (human), P31751 [S474D]
MAP3K7 TAB1 (human) = MAP3K7 TAB1 (human) (UniProt Q15750+O43318)
JAK2 JH1 JH2 (human) = JAK2 JH1 JH2 (human) (UniProt O60674)
[2] = target: STK11 CAB39 STRADA (human) (UniProt Q9Y376+Q7RTN6+Q15831)
BRSK1 (human) = BRSK1 (human) (UniProt Q8TDC3)
IGF1R (human) = IGF1R (human) (UniProt P08069)
HIPK1 (human) = HIPK1 (human) (UniProt Q86Z02)
MELK (human) = MELK (human) (UniProt Q14680)
PRKCZ (human) = PRKCZ (human) (UniProt Q05513)
CLK2 (human) = CLK2 (human) (UniProt P49760)
TAOK1 (human) = TAOK1 (human) (UniProt Q7L7X3)

Chain of MAPK14 (human) (Q16539 whole entry, looked up): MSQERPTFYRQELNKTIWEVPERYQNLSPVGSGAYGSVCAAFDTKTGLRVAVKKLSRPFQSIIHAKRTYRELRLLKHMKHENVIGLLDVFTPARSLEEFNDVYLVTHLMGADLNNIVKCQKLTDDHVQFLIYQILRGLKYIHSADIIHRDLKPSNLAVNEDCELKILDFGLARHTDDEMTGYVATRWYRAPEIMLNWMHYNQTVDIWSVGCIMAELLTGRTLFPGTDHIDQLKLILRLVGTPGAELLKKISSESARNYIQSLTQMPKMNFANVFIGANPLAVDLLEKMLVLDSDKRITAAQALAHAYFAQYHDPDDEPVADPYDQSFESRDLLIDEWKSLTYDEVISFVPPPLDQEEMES
Chain of MAPKAPK5 (human) (Q8IW41 whole entry, looked up): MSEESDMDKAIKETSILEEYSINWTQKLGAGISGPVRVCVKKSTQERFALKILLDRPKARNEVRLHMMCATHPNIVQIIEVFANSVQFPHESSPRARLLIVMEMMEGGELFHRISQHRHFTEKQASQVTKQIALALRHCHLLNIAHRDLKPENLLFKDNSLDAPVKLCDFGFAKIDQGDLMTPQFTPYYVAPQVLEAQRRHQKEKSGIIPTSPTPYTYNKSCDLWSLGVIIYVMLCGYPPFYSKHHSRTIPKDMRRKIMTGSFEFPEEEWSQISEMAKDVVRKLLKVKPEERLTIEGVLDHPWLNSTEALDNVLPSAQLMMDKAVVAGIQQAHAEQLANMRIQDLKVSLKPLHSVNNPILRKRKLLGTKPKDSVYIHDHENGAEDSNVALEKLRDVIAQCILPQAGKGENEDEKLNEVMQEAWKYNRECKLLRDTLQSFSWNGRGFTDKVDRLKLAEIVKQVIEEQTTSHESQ

Compound: Oc1ccc2ccccc2c1SSc1c(O)ccc2ccccc12
- residual activity (MAPK14 (human); compound 1.0 µM): 80%
- residual activity (MAPK14 (human); compound 5.0 µM): 68%
- residual activity (MAPK14 (human); compound 10.0 µM): 83%
- residual activity (LCK (mouse); compound 1.0 µM): 99%
- residual activity (LCK (mouse); compound 5.0 µM): 99%
- residual activity (LCK (mouse); compound 10.0 µM): 90%
- residual activity (FGFR1 (human); compound 1.0 µM): 24%
- residual activity (FGFR1 (human); compound 5.0 µM): 4%
- residual activity (FGFR1 (human); compound 10.0 µM): 29%
- residual activity (MAPKAPK5 (human); compound 1.0 µM): 86%
- residual activity (MAPKAPK5 (human); compound 5.0 µM): 46%
- residual activity (MAPKAPK5 (human); compound 10.0 µM): 102%
- residual activity (ROCK2 (rat); compound 1.0 µM): 95%
- residual activity (ROCK2 (rat); compound 5.0 µM): 87%
- residual activity (ROCK2 (rat); compound 10.0 µM): 78%
- residual activity (FLT1 (human); compound 1.0 µM): 6%
- residual activity (FLT1 (human); compound 5.0 µM): 4%
- residual activity (FLT1 (human); compound 10.0 µM): 47%
- residual activity (MINK1 (human); compound 1.0 µM): 3%
- residual activity (MINK1 (human); compound 5.0 µM): 1%
- residual activity (SRC (human); compound 1.0 µM): 42%
- residual activity (SRC (human); compound 5.0 µM): 17%
- residual activity (SRC (human); compound 10.0 µM): 89%
- residual activity (GSK3B (human); compound 1.0 µM): 68%
- residual activity (GSK3B (human); compound 5.0 µM): 30%
- residual activity (GSK3B (human); compound 10.0 µM): 106%
- residual activity (INSR (human); compound 1.0 µM): 110%
- residual activity (INSR (human); compound 5.0 µM): 93%
- residual activity (INSR (human); compound 10.0 µM): 113%
- residual activity (CSK (human); compound 1.0 µM): 102%
- residual activity (CSK (human); compound 5.0 µM): 109%
- residual activity (CSK (human); compound 10.0 µM): 99%
- residual activity (CAMKK2 (human); compound 1.0 µM): 98%
- residual activity (CAMKK2 (human); compound 5.0 µM): 49%
- residual activity (CAMKK2 (human); compound 10.0 µM): 90%
- residual activity (NTRK1 (human); compound 1.0 µM): 63%
- residual activity (NTRK1 (human); compound 5.0 µM): 19%
- residual activity (EPHA2 (human); compound 1.0 µM): 91%
- residual activity (EPHA2 (human); compound 5.0 µM): 75%
- residual activity (EPHA2 (human); compound 10.0 µM): 97%
- residual activity (MAPK15 (human); compound 1.0 µM): 2%
- residual activity (MAPK15 (human); compound 5.0 µM): 1%
- residual activity (MAPK15 (human); compound 10.0 µM): 49%
- residual activity (IRAK4 (human); compound 1.0 µM): 47%
- residual activity (IRAK4 (human); compound 5.0 µM): 9%
- residual activity (MAPK11 (human); compound 1.0 µM): 114%
- residual activity (MAPK11 (human); compound 5.0 µM): 112%
- residual activity (MAPK11 (human); compound 10.0 µM): 117%
- residual activity (RIPK2 (human); compound 1.0 µM): 117%
- residual activity (RIPK2 (human); compound 5.0 µM): 114%
- residual activity (DYRK3 (human); compound 1.0 µM): 54%
- residual activity (DYRK3 (human); compound 5.0 µM): 33%
- residual activity (DYRK3 (human); compound 10.0 µM): 74%
- residual activity (HIPK3 (human); compound 1.0 µM): 37%
- residual activity (HIPK3 (human); compound 5.0 µM): 33%
- residual activity (CSNK1D (human); compound 1.0 µM): 96%
- residual activity (CSNK1D (human); compound 5.0 µM): 94%
- residual activity (MARK1 (human); compound 1.0 µM): 65%
- residual activity (MARK1 (human); compound 5.0 µM): 38%
- residual activity (RPS6KA3 KD1 KD2 (human); compound 1.0 µM): 12%
- residual activity (RPS6KA3 KD1 KD2 (human); compound 5.0 µM): 6%
- residual activity (RPS6KA3 KD1 KD2 (human); compound 10.0 µM): 6%
- residual activity (MAP3K1 (human); compound 1.0 µM): 64%
- residual activity (MAP3K1 (human); compound 5.0 µM): 38%
- residual activity ([1]; compound 1.0 µM): 1%
- residual activity ([1]; compound 5.0 µM): 0%
- residual activity ([1]; compound 10.0 µM): 0%
- residual activity (MAP3K7 TAB1 (human); compound 1.0 µM): 47%
- residual activity (MAP3K7 TAB1 (human); compound 5.0 µM): 15%
- residual activity (JAK2 JH1 JH2 (human); compound 1.0 µM): 72%
- residual activity (JAK2 JH1 JH2 (human); compound 5.0 µM): 34%
- residual activity ([2]; compound 1.0 µM): 60%
- residual activity ([2]; compound 5.0 µM): 17%
- residual activity (BRSK1 (human); compound 1.0 µM): 29%
- residual activity (BRSK1 (human); compound 5.0 µM): 24%
- residual activity (IGF1R (human); compound 1.0 µM): 87%
- residual activity (IGF1R (human); compound 5.0 µM): 94%
- residual activity (IGF1R (human); compound 10.0 µM): 84%
- residual activity (HIPK1 (human); compound 1.0 µM): 52%
- residual activity (HIPK1 (human); compound 5.0 µM): 48%
- residual activity (MELK (human); compound 1.0 µM): 13%
- residual activity (MELK (human); compound 5.0 µM): 14%
- residual activity (MELK (human); compound 10.0 µM): 97%
- residual activity (PRKCZ (human); compound 1.0 µM): 44%
- residual activity (PRKCZ (human); compound 5.0 µM): 11%
- residual activity (PRKCZ (human); compound 10.0 µM): 39%
- residual activity (CLK2 (human); compound 1.0 µM): 77%
- residual activity (CLK2 (human); compound 5.0 µM): 48%
- residual activity (TAOK1 (human); compound 1.0 µM): 103%
- residual activity (TAOK1 (human); compound 5.0 µM): 102%

Compound: COc1ccc(-n2ncc3cnc(Nc4cc(OC)c(OC)c(OCCCN5CCN(C)CC5)c4)nc32)cc1
- residual activity (MAPK14 (human); compound 0.1 µM): 98%
- residual activity (MAPK14 (human); compound 1.0 µM): 85%
- residual activity (LCK (mouse); compound 0.1 µM): 10%
- residual activity (LCK (mouse); compound 1.0 µM): 4%
- residual activity (FGFR1 (human); compound 0.1 µM): 20%
- residual activity (FGFR1 (human); compound 1.0 µM): 8%
- residual activity (MAPKAPK5 (human); compound 0.1 µM): 98%
- residual activity (MAPKAPK5 (human); compound 1.0 µM): 85%
- residual activity (ROCK2 (rat); compound 0.1 µM): 49%
- residual activity (ROCK2 (rat); compound 1.0 µM): 25%
- residual activity (FLT1 (human); compound 0.1 µM): 5%
- residual activity (FLT1 (human); compound 1.0 µM): 2%
- residual activity (MINK1 (human); compound 0.1 µM): 104%
- residual activity (MINK1 (human); compound 1.0 µM): 57%
- residual activity (SRC (human); compound 0.1 µM): 7%
- residual activity (SRC (human); compound 1.0 µM): 3%
- residual activity (GSK3B (human); compound 0.1 µM): 37%
- residual activity (GSK3B (human); compound 1.0 µM): 6%
- residual activity (INSR (human); compound 0.1 µM): 79%
- residual activity (INSR (human); compound 1.0 µM): 21%
- residual activity (CSK (human); compound 0.1 µM): 65%
- residual activity (CSK (human); compound 1.0 µM): 38%
- residual activity (CAMKK2 (human); compound 0.1 µM): 58%
- residual activity (CAMKK2 (human); compound 1.0 µM): 28%
- residual activity (NTRK1 (human); compound 0.1 µM): 32%
- residual activity (NTRK1 (human); compound 1.0 µM): 11%
- residual activity (EPHA2 (human); compound 0.1 µM): 28%
- residual activity (MAPK15 (human); compound 0.1 µM): 22%
- residual activity (MAPK15 (human); compound 1.0 µM): 4%
- residual activity (IRAK4 (human); compound 0.1 µM): 64%
- residual activity (IRAK4 (human); compound 1.0 µM): 20%
- residual activity (MAPK11 (human); compound 0.1 µM): 103%
- residual activity (MAPK11 (human); compound 1.0 µM): 95%
- residual activity (RIPK2 (human); compound 0.1 µM): 28%
- residual activity (RIPK2 (human); compound 1.0 µM): 14%
- residual activity (DYRK3 (human); compound 1.0 µM): 10%
- residual activity (HIPK3 (human); compound 0.1 µM): 69%
- residual activity (HIPK3 (human); compound 1.0 µM): 19%
- residual activity (CSNK1D (human); compound 0.1 µM): 95%
- residual activity (CSNK1D (human); compound 1.0 µM): 69%
- residual activity (MARK1 (human); compound 0.1 µM): 63%
- residual activity (MARK1 (human); compound 1.0 µM): 31%
- residual activity (RPS6KA3 KD1 KD2 (human); compound 0.1 µM): 38%
- residual activity (RPS6KA3 KD1 KD2 (human); compound 1.0 µM): 9%
- residual activity (MAP3K1 (human); compound 0.1 µM): 103%
- residual activity (MAP3K1 (human); compound 1.0 µM): 92%
- residual activity ([1]; compound 0.1 µM): 88%
- residual activity ([1]; compound 1.0 µM): 77%
- residual activity (MAP3K7 TAB1 (human); compound 0.1 µM): 14%
- residual activity (MAP3K7 TAB1 (human); compound 1.0 µM): 19%
- residual activity (JAK2 JH1 JH2 (human); compound 0.1 µM): 4%
- residual activity (JAK2 JH1 JH2 (human); compound 1.0 µM): 3%
- residual activity ([2]; compound 0.1 µM): 119%
- residual activity ([2]; compound 1.0 µM): 73%
- residual activity (BRSK1 (human); compound 0.1 µM): 74%
- residual activity (BRSK1 (human); compound 1.0 µM): 17%
- residual activity (IGF1R (human); compound 0.1 µM): 104%
- residual activity (IGF1R (human); compound 1.0 µM): 6%
- residual activity (HIPK1 (human); compound 0.1 µM): 44%
- residual activity (HIPK1 (human); compound 1.0 µM): 17%
- residual activity (MELK (human); compound 0.1 µM): 37%
- residual activity (MELK (human); compound 1.0 µM): 27%
- residual activity (PRKCZ (human); compound 1.0 µM): 78%
- residual activity (CLK2 (human); compound 0.1 µM): 30%
- residual activity (CLK2 (human); compound 1.0 µM): 11%
- residual activity (TAOK1 (human); compound 0.1 µM): 95%
- residual activity (TAOK1 (human); compound 1.0 µM): 74%
